One test concerns HLA A or B Allele. It counts as cell-based, human. As to conditions: for HLA A or B Allele Specificity: and subtypes where given.
Test [1] deals with peptide-loaded T2 cells, EBVLCL targets infected with pp65Vac, and HCMV-infected fibroblasts. Put plainly: lipidated peptides with and without IFA in transgenic HLA A2.1 mouse, CRA. Format: in vivo. As to conditions: peptide together with PADRE, with versus without emulsification in IFA. Here is the method: Either one or two palmitic acid moieties were attached to the amino terminus of the 495 peptide, and a series of immunization studies were conducted in the transgenic HLA A2.1 mouse.
Separate mice were immunized with unmodified pp65495-503, and either the monolipidated or dilipidated forms of the peptide together with the PADRE epitope. Because it has been previously shown that lipidated peptides will stimulate immunity without co-administration of Freund's adjuvant (H. Schild et al., Eur. J. Immunol. 21:2649–2654 (1991)), immunization of mice with and without emulsifying the peptides in IFA was compared. In a procedure similar to the procedure described in Example 9 above, twelve days post inoculation the mice were splenectomized and the spleen cell population was restimulated twice in vitro. The splenic effectors were then tested in a chromium release assay with peptide-loaded T2 cells, EBVLCL targets infected with pp65Vac, and HCMV-infected fibroblasts (D. J. Diamond et al., Blood 90 (5):1751–1767 (1997)). […] (See FIGS. 1–3)

For test [2], the system named is peptide-sensitized targets. Put plainly: single component lipid-HTL-CTL vaccine in transgenic HLA A2.1 mice, peptide-sensitized targets. Format: in vivo, mouse. As to conditions: for lysis of p53149-157 sensitized targets by spleen cells of immunized mice / lysis of pp65495-503 peptide sensitized targets by spleen cells of immunized mice: 100 nmoles s.c. in 25% DMSO/PBS with 2.5% hexafluoroisopropanol. Here is the method:
(§1) Molecule A (SEQ ID NO:37) is a vaccine that has the capability of working in mice and humans, whereas molecule B (SEQ ID NO:38) should only be functional in mice. One hundred nanomoles of each of these vaccine peptides in 25% dimethysulfoxide in phosphate buffered saline with 2.5% hexafluoroisopropanol were injected s.c. into separate transgenic HLA A2.1 mice.
(§2) The methods referred to in Examples 9 and 10 were used to derive spleen cell populations containing cells which were specific against pp65 and HCMV. The spleen cells from immunized mice were tested for recognition and cytolysis against specific and non-specific peptide-sensitized targets, HCMV infected and non-infected HLA A*0201 and HLA-mismatched fibroblast targets. […] This stimulative effect of the booster is in agreement with B. Livingston et al., J. Immunol. 159:1383–1392 (1997)).

Test [3] deals with HCMV infected and non-infected HLA A*0201 and HLA-mismatched fibroblast targets. Put plainly: single component lipid-HTL-CTL vaccine in transgenic HLA A2.1 mice, fibroblast targets. It counts as in vivo, mouse. The conditions noted are these: 100 nmoles s.c., no adjuvant. Here is the method:
as §1, §2

The subject of the next test is peptide loaded T2 cells. Put plainly: immunization of HLA A2.1 transgenic mice, splenic effectors tested on peptide loaded T2 cells. The conditions noted are these: 50 μg peptide with 20 μg PADRE in IFA s.c., two in vitro restimulation cycles. It counts as in vivo, mouse. The source says: A transgenic mouse model lacking prior HCMV exposure, the HLA A2.1 mouse (E. J. Bernhard et al., J. Exp. Med. 168:1157–1162 (1988)), was employed to test whether the 495 peptide could stimulate CTLs lacking prior virus exposure and function as a vaccine. These experiments involved in vitro analysis using mouse and human cell targets, either infected with viruses or primed with the peptide of SEQ ID NO:1 or a non-specific control peptide.
Three mice were immunized subcutaneously at the base of the tail with 50 μg of the 495 peptide (pp65495-503) or peptide p53149-157 from p53 (M. Theobald et al., Proc. Natl. Acad. Sci. U.S.A. 92:11993–11997 (1995)) together with 20 μg of the polyclonal helper T lymphocyte (HTL) peptide (PADRE; SEQ ID NO:29) (J. Alexander et al., Immunity. 1:751–761 (1994)) emulsified in IFA (Incomplete Freund's Adjuvant). After twelve days, spleens were removed from immunized mice, a splenic suspension was made, and the effector cells were restimulated for one week using p53149-157 or pp65495-503 peptide sensitized syngeneic lipopolysaccharide-treated splenic blast cells (P. A. Wentworth et al., Eur. J. Immunol. 26:97–101 (1996)). Thereafter, for subsequent in vitro stimulations, the stimulator cells were Jurkat A2.1 cells, prepared by mild acid treatment and subsequent loading of peptides (Z. Yu et al., Journal of Surgical Research 69:337–343 (1997)). […]

Where no end group is shown, it is not given here. [ ]: non-standard residue; d: D form. The star is where a group is joined. Palmitoyl = CCCCCCCCCCCCCCCC(=O)*; Cha = N[C@@H](CC1CCCCC1)C(=O)O

Turning to SVLGPISGHVLK [SEQ ID NO: 11], in the test with HLA A or B Allele, the “Number of Test Cell Lines (independent cell lines of the same restriction which were sensitized)” value (“Number of Test Cell Lines” for short) turned out to be 5 and the “HLA A or B Allele Specificity” value was “HLA A*1101”.

On to FPTKDVAL [SEQ ID NO: 9], for which, in the test on HLA A or B Allele, the “Number of Test Cell Lines” value is 3 and the “HLA A or B Allele Specificity” value is given as “HLA B*3502,”.

Turning to “KSS-NLVPMVATV-OH (KSSNLVPMVATV-OH) [SEQ ID NO:30]”, the “immune response induced (CRA of splenic effectors)” value in test [1] is “no activity unless emulsified in IFA”.

On to “(Pam)2-KSSAKXVAAWTLKAAANLVPMVATV (KSSAK[Cha]VAAWTLKAAANLVPMVATV; not fully specified (residue 1, N-terminus); printed as (Pam)2-KSSAKXVAAWTLKAAANLVPMVATV; also: (Pam)2- two palmitoyl groups at N-terminal end, attachment not given here) [SEQ ID NO:37]”, for which the “immune response after single immunization” value in test [2] (50 nmole, single immunization) is given as “not effective”. The “immune response after second immunization (booster)” value in test [2] (50 nmole, with booster) is “detectable immune response”. Also, in test [2] (no adjuvant), the “lysis of p53149-157 sensitized targets by spleen cells of immunized mice” value is reported as “ineffective” and the “lysis of pp65495-503 peptide sensitized targets by spleen cells of immunized mice” value is “effectively lysed”. Besides, the “relative potency of molecules A and B” value in test [2] (100 nmoles s.c., no adjuvant) is recorded as “more potent of the two”. In addition, in test [3], the “lysis of HCMV-infected HLA A*0201 fibroblasts” value is reported as “effectively lysed” and the “lysis of uninfected or HLA-mismatched fibroblasts” value is reported as “not recognized or lysed”.

Take “FVFPTKDVALR (listed as Human cytomegalovirus) [SEQ ID NO: 5]”: in the test on HLA A or B Allele, the “Number of Test Cell Lines” value came out at 3 and the “HLA A or B Allele Specificity” value is recorded as “HLA A*6801”.

In the case of “PTFTSQYRIQGKL (listed as Human cytomegalovirus) [SEQ ID NO: 12]”, in the test with HLA A or B Allele, the “Number of Test Cell Lines” value worked out at 3 and the “HLA A or B Allele Specificity” value is “HLA B*3801/2”.

With “1 PALMITIC ACID-KSS-NLVPMVATV-OH (Palmitoyl-KSSNLVPMVATV-OH; SMILES CCCCCCCCCCCCCCCC(=O)N[C@@H](CCCCN)C(=O)N[C@@H](CO)C(=O)N[C@@H](CO)C(=O)N[C@@H](CC(N)=O)C(=O)N[C@@H](CC(C)C)C(=O)N[C@H](C(=O)N1CCC[C@H]1C(=O)N[C@@H](CCSC)C(=O)N[C@H](C(=O)N[C@@H](C)C(=O)N[C@H](C(=O)N[C@H](C(=O)O)C(C)C)[C@@H](C)O)C(C)C)C(C)C) [SEQ ID NO:31]”, in test [1], the “immune response induced (CRA of splenic effectors)” value is given as “weaker immune response”.

On to “(Pam)2-KSSISQAVHAAHAEINEAAANLVPMVATV (also: two palmitoyl groups on the N-terminal lysine, exact amine positions not given here) [SEQ ID NO:38]”, for which, in test [2] (no adjuvant), the “lysis of p53149-157 sensitized targets by spleen cells of immunized mice” value was “ineffective” and the “lysis of pp65495-503 peptide sensitized targets by spleen cells of immunized mice” value was “effectively lysed”. Moreover, in test [3], the “lysis of HCMV-infected HLA A*0201 fibroblasts” value is recorded as “effectively lysed” and the “lysis of uninfected or HLA-mismatched fibroblasts” value is “not recognized or lysed”.

In the case of “RPHERNGFTVL (listed as Human cytomegalovirus) [SEQ ID NO: 10]”, in the test on HLA A or B Allele, the “Number of Test Cell Lines” value was determined as 5 and the “HLA A or B Allele Specificity” value is “HLA B7”.

With “p53149-157: peptide p53149-157 from human p53 which binds to HLA A*0201, control peptide (STPPPGTRV; UniProt P04637 149-157, looked up, fragment)”, in the test with peptide loaded T2 cells, the “recognition of T2 cells loaded with the immunizing peptide by murine splenic effectors” value is on record as “substantial recognition” and the “recognition of T2 cells loaded with the non-immunizing peptide” value is on record as “without recognition of the non-immunizing peptide”.

With “TPRVTGGGAM (listed as Human cytomegalovirus) [SEQ ID NO: 7]”, in the test with HLA A or B Allele, the “Number of Test Cell Lines” value is 5 and the “HLA A or B Allele Specificity” value is reported as “HLA B7”.

Turning to “EFFWDANDIY (listed as Human cytomegalovirus) [SEQ ID NO: 13]”, in the test on HLA A or B Allele, the “Number of Test Cell Lines” value came to 2 and the “HLA A or B Allele Specificity” value is reported as “HLA B*44XX”.

In the case of “FTSQYRIQGKL (listed as Human cytomegalovirus) [SEQ ID NO: 14]”, in the test with HLA A or B Allele, the “Number of Test Cell Lines” value turned out to be 4 and the “HLA A or B Allele Specificity” value was “HLA A*2402”.

The values are drawn from US7160685B2, “Diagnostic reagents for human cytomegalovirus and methods of use” (priority 1996, dated 2007).
